According to ChEMBL document CHEMBL5325471, “Identification of new modulator of DNA repairing pathways based on natural product (±)-peharmaline A” (Bioorg Med Chem, 2023):

Key:
MCF7 = test: Antiproliferative activity against human MCF7 cells assessed as cell growth inhibition incubated for 44 hrs by MTT assay; assay type: functional, cell-based; settings: MCF7, 44 h
HCT-116 = test: Antiproliferative activity against human HCT-116 cells assessed as cell growth inhibition incubated for 44 hrs by MTT assay; assay type: functional, cell-based; settings: HCT-116, 44 h
PC-3 = test: Antiproliferative activity against human PC-3 cells assessed as cell growth inhibition incubated for 44 hrs by MTT assay; assay type: functional, cell-based; settings: PC-3, 44 h
[1] = Cytotoxicity against human fR2 cells assessed as cell growth inhibition incubated for 44 hrs by MTT assay; assay type: toxicity, cell-based
A549 = test: Antiproliferative activity against human A549 cells assessed as cell growth inhibition incubated for 44 hrs by MTT assay; assay type: functional, cell-based; settings: A549, 44 h

| Compound | IC50 (MCF7) [µM] | IC50 (HCT-116) [µM] | IC50 (PC-3) [µM] | IC50 at 44 h [1] [µM] | IC50 (A549) [µM] |
| --- | --- | --- | --- | --- | --- |
| COC(=O)[C@]1([C@H]2CCN(C(=O)c3ccc(Cl)cc3Cl)C2=O)NCCc2c1[nH]c1ccccc21 (racemic) | 8.36 | 8.79 | 11.1 | > 100 | 10.8 |
| COC(=O)[C@]1([C@H]2CCCN(C(=O)c3ccccc3[N+](=O)[O-])C2=O)NCCc2c1[nH]c1ccccc21 | 51.2 | 42.2 | > 100 | > 100 | 39.1 |
| CCOC(=O)[C@]1([C@H]2CCN(C(=O)c3ccccc3[N+](=O)[O-])C2=O)NCCc2c1[nH]c1ccccc21 (racemic) | 28.1 | > 100 | > 100 | > 100 | 10.7 |
| COC(=O)[C@@H]1Cc2c([nH]c3ccccc23)[C@@](C(=O)OC)([C@H]2CCCN(C(=O)c3ccccc3[N+](=O)[O-])C2=O)N1 | > 100 | > 100 | > 100 | > 100 | 19.4 |
| COC(=O)[C@]1([C@H]2CCN(C(=O)c3ccc(Cl)cc3)C2=O)NCCc2c1[nH]c1ccccc21 (racemic) | > 100 | 19.7 | > 100 | > 100 | 20.4 |
| COC(=O)[C@]1([C@H]2CCN(C(=O)C3CCC3)C2=O)NCCc2c1[nH]c1ccccc21 (racemic) | > 100 | 25.6 | > 100 | > 100 | 23.7 |
| COC(=O)[C@]1([C@H]2CCN(C(=O)c3ccccc3Br)C2=O)NCCc2c1[nH]c1ccccc21 (racemic) | 8.12 | 3.92 | 6.23 | 89.8 | 3.37 |
| COC(=O)[C@]1([C@@H]2CCNC2=O)NCCc2c1[nH]c1cc(OC)ccc21 | > 100 | 7.48 | 91.7 | > 100 | > 100 |
| COC(=O)[C@]1([C@H]2CCN(C(=O)c3ccccc3F)C2=O)NCCc2c1[nH]c1ccccc21 (racemic) | 6.96 | 8.65 | 5.96 | > 100 | 6.45 |
| COC(=O)[C@@H]1Cc2c([nH]c3ccccc23)[C@@](C(=O)OC)([C@H]2CCCn3c2nc2ccccc2c3=O)N1 | 6.2 | 6.26 | 13 | 33.2 | 10.4 |
| COC(=O)[C@]1([C@H]2CCCn3c2nc2ccccc2c3=O)NCCc2c1[nH]c1ccccc21 | 3.28 | 4.15 | 4.95 | 93.6 | 6.88 |
| COC(=O)[C@]1([C@H]2CCN(C(=O)c3ccc(Cl)cc3[N+](=O)[O-])C2=O)NCCc2c1[nH]c1ccccc21 (racemic) | > 100 | > 100 | > 100 | > 100 | > 100 |
| COC(=O)[C@]1([C@H]2CCCCN(C(=O)c3ccccc3[N+](=O)[O-])C2=O)NCCc2c1[nH]c1ccccc21 | 7.43 | 15.1 | 36.5 | 30.2 | 35.8 |
| COC(=O)[C@]1([C@H]2CCN(C(=O)c3ccc(F)cc3)C2=O)NCCc2c1[nH]c1ccccc21 (racemic) | > 5.04 | 10.1 | 17 | 35.8 | 7.8 |
| COC(=O)[C@]1([C@H]2CCCCn3c2nc2ccccc2c3=O)NCCc2c1[nH]c1ccccc21 | 6.95 | 5.35 | 6.47 | 35.6 | 7.91 |
| COC(=O)[C@]1([C@H]2CCN(C(=O)c3cccs3)C2=O)NCCc2c1[nH]c1ccccc21 (racemic) | 15.9 | 14 | 94.4 | 39.2 | 17.9 |

| Compound | IC50 (MCF7) [µM] | IC50 (HCT-116) [µM] | IC50 (PC-3) [µM] | IC50 at 44 h [1] [µM] | IC50 (A549) [µM] |
| --- | --- | --- | --- | --- | --- |
| COC(=O)[C@]1([C@H]2CCN(C(=O)c3ccccc3[N+](=O)[O-])C2=O)NCCc2c1[nH]c1ccccc21 | 51.3 | > 100 | > 100 | > 100 | > 100 |
| COC(=O)[C@]1([C@H]2CCNC2=O)NCCc2c1[nH]c1ccccc21 | > 100 | 25.6 | 75.1 | > 100 | 39.8 |
| COC(=O)[C@]1([C@H]2CCCNC2=O)NCCc2c1[nH]c1ccccc21 | > 100 | > 100 | 35 | > 100 | > 100 |
| COC(=O)[C@]1([C@H]2CCN(C(=O)c3ccccc3I)C2=O)NCCc2c1[nH]c1ccccc21 (racemic) | 8.36 | 5.76 | 7.02 | > 100 | 5.02 |
| COC(=O)[C@]1([C@H]2CCN(C(=O)c3ccc(C)cc3C)C2=O)NCCc2c1[nH]c1ccccc21 (racemic) | > 100 | 11.2 | 59.7 | > 100 | 16.3 |
| COC(=O)[C@@H]1Cc2c([nH]c3ccccc23)[C@@](C(=O)OC)([C@H]2CCNC2=O)N1 | > 100 | 27.4 | > 100 | > 100 | 20.4 |
| COC(=O)[C@]1([C@H]2CCN(C(=O)c3ccccc3[N+](=O)[O-])C2=O)NCCc2c1[nH]c1cc(OC)ccc21 | 16.1 | 6.19 | 31 | 17.8 | 12.7 |
| CCOC(=O)[C@]1([C@H]2CCNC2=O)NCCc2c1[nH]c1ccccc21 (racemic) | > 100 | > 100 | > 100 | > 100 | > 100 |
| COC(=O)[C@]1([C@H]2CCN(C(=O)c3ccccc3)C2=O)NCCc2c1[nH]c1ccccc21 (racemic) | > 100 | 16.4 | > 100 | > 100 | 17.3 |
| COC(=O)[C@]1([C@H]2CCCCNC2=O)NCCc2c1[nH]c1ccccc21 | 93.3 | > 100 | > 100 | > 100 | > 100 |
| COC(=O)[C@]1([C@H]2CCN(C(=O)c3ccc(C(F)(F)F)cc3Cl)C2=O)NCCc2c1[nH]c1ccccc21 (racemic) | 4.51 | 3 | 13.5 | 39.2 | 0.845 |
| COC(=O)[C@]1([C@H]2CCCN(C(=O)c3ccccc3Cl)C2=O)NCCc2c1[nH]c1ccccc21 (racemic) | 47.7 | 5.34 | 43.7 | > 100 | 5.21 |
| COC(=O)[C@]1([C@H]2CCN(C(=O)c3ccc(C)cc3[N+](=O)[O-])C2=O)NCCc2c1[nH]c1ccccc21 (racemic) | > 100 | > 100 | > 100 | > 100 | 16.3 |
| CCOC(=O)[C@]1([C@H]2CCN(C(=O)c3ccccc3Cl)C2=O)NCCc2c1[nH]c1ccccc21 (racemic) | 20.4 | 55.8 | 22.8 | 84 | 72.8 |
| COC(=O)[C@]1([C@H]2CCN(C(=O)c3ccccc3Cl)C2=O)NCCc2c1[nH]c1ccccc21 (racemic) | 1.62 | 4.12 | 2.39 | 20 | 1.12 |
| COC(=O)[C@]1([C@H]2CCNC2=O)NCCc2c1[nH]c1cc(OC)ccc21 | 81.6 | > 100 | > 100 | > 100 | 16.6 |
